Consider 21 molecules from patent US20240043427A1 (Gilead Sciences, Inc., priority 2020, published 2024).

Each structure is given as a SMILES string.

For experiment [1], the target named is T1, CD73 (Homo sapiens (Human), UniProt P21589). It counts as biochemical. The settings on record: 1 mM NaH2PO4 in enzyme buffer, CD73 0.3 nM, AMP 15 uM.
The target in experiment [2] is T1, CD73. Briefly: MDA-MB-231 Cell Based CD73 Activity Assay (DMEM). The settings on record: MDA-MB-231-GFP cells, DMEM medium with 10% human plasma, 200 uM AMP. The procedure: MDA-MB-231 Cell Based CD73 Activity Assay (DMEM) MDA-MB-231-GFP cells were seeded in 384-well plates (Greiner 781946) at a density of 3000 cells per well in 50 μL of DMEM medium with 10% HP (human plasma). Cells were plated into assay plate with compounds pre-spotted, for an overnight compound treatment. 50 uL of 400 uM AMP (final concentration will be 200 uM) was added using Bio-tek dispenser. Plates were incubated for 100 mins. […] The samples were analyzed using Rapid fire.

T1 sequence (P21589 27-574): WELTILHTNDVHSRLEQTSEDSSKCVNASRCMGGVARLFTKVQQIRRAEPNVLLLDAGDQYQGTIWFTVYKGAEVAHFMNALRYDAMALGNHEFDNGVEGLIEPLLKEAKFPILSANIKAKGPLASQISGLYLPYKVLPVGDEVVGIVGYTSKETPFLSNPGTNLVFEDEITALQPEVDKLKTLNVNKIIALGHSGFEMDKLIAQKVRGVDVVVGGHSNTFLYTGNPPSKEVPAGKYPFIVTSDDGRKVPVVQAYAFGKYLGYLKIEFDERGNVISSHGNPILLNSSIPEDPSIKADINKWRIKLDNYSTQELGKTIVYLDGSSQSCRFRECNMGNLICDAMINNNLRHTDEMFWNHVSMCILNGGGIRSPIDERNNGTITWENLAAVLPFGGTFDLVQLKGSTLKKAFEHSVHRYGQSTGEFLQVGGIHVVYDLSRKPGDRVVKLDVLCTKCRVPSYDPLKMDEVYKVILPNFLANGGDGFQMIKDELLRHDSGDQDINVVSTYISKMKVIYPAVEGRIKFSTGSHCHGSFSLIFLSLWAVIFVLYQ

The term IC50 denotes the concentration needed to halve the response being measured. Higher therefore signals weaker potency. What is called EC50 is the concentration giving half of the maximal effect. Take `O=c1[nH]cc(-c2cc([C@@H]3C[C@H]3c3cc(F)c(F)c(F)c3)c3nccn3n2)c(=O)[nH]1` (racemic) [Example 36]: the IC50 in experiment [1] was 2.72 nM. The same molecule gave an EC50 in experiment [2] of 2.53 nM. In experiment [1], `CC(C)n1ncc2ccc([C@H]3C[C@@H]3c3cc(-c4c[nH]c(=O)[nH]c4=O)nn4ccnc34)cc21` (racemic) [Example 119, 5-(8-((1S,2S)-2-(1-isopropyl-1H-indazol-6-yl)cyclopropyl)imidazo[1,2-b]pyridazin-6-yl)pyrimidine-2,4(1H,3H)-dione and 5-(8-((1R,2R)-2-(1-isopropyl-1H-indazol-6-yl)cyclopropyl)imidazo[1,2-b]pyridazin-6-yl)pyrimidine-2,4(1H,3H)-dione] returned an IC50 of 0.56 nM. The molecule further had an EC50 in experiment [2] of 1.09 nM. For `O=c1[nH]cc(-c2cc([C@H]3C[C@@H]3c3ccc(OC(F)F)nc3)c3ncc(F)n3n2)c(=O)[nH]1` (racemic) [Example 121, 5-(8-((1S,2S)-2-(6-(difluoromethoxy)pyridin-3-yl)cyclopropyl)-3-fluoroimidazo[1,2-b]pyridazin-6-yl)pyrimidine-2,4(1H,3H)-dione and 5-(8-((1R,2R)-2-(6-(difluoromethoxy)pyridin-3-yl)cyclopropyl)-3-fluoroimidazo[1,2-b]pyridazin-6-yl)pyrimidine-2,4(1H,3H)-dione], in that order: 1.08 nM and 19.7 nM. The matching figures for `O=c1[nH]cc(-c2cc([C@H]3C[C@@H]3c3ccc4cnn(CC(F)F)c4c3)c3nccn3n2)c(=O)[nH]1` (racemic) [Example 123, 5-(8-((1S,2S)-2-(1-(2,2-difluoroethyl)-1H-indazol-6-yl)cyclopropyl)imidazo[1,2-b]pyridazin-6-yl)pyrimidine-2,4(1H,3H)-dione and 5-(8-((1R,2R)-2-(1-(2,2-difluoroethyl)-1H-indazol-6-yl)cyclopropyl)imidazo[1,2-b]pyridazin-6-yl)pyrimidine-2,4(1H,3H)-dione]: 0.69 nM and 0.37 nM. For `O=c1[nH]cc(-c2cc([C@H]3C[C@@H]3c3ccc(OC(F)F)cn3)c3nccn3n2)c(=O)[nH]1` (racemic) [Example 136, 5-(8-((1S,2S)-2-(5-(difluoromethoxy)pyridin-2-yl)cyclopropyl)imidazo[1,2-b]pyridazin-6-yl)pyrimidine-2,4(1H,3H)-dione and 5-(8-((1R,2R)-2-(5-(difluoromethoxy)pyridin-2-yl)cyclopropyl)imidazo[1,2-b]pyridazin-6-yl)pyrimidine-2,4(1H,3H)-dione], in that order: 3.11 nM and 6.37 nM. `O=c1[nH]cc(-c2cc([C@H]3C[C@@H]3c3ccc4cnc(C(F)(F)F)cc4c3)c3nccn3n2)c(=O)[nH]1` (racemic) [Example 138, 5-(8-((1S,2S)-2-(3-(trifluoromethyl)isoquinolin-6-yl)cyclopropyl)imidazo[1,2-b]pyridazin-6-yl)pyrimidine-2,4(1H,3H)-dione and 5-(8-((1R,2R)-2-(3-(trifluoromethyl)isoquinolin-6-yl)cyclopropyl)imidazo[1,2-b]pyridazin-6-yl)pyrimidine-2,4(1H,3H)-dione]: the IC50 in experiment [1] is 0.95 nM. For the same molecule, the EC50 in experiment [2] was 0.64 nM.

For the molecule `O=c1[nH]cc(-c2cc([C@H]3C[C@@H]3c3cc(C(F)(F)F)c4ncccc4c3)c3nccn3n2)c(=O)[nH]1` (racemic) [Example 141, 5-(8-((1S,2S)-2-(8-(trifluoromethyl)quinolin-6-yl)cyclopropyl)imidazo[1,2-b]pyridazin-6-yl)pyrimidine-2,4(1H,3H)-dione and 5-(8-((1R,2R)-2-(8-(trifluoromethyl)quinolin-6-yl)cyclopropyl)imidazo[1,2-b]pyridazin-6-yl)pyrimidine-2,4(1H,3H)-dione], in experiment [1], the IC50 came out at 2.1 nM. Also, the EC50 in experiment [2] amounted to 24.8 nM. The matching figures for `O=c1[nH]cc(-c2cc([C@H]3C[C@@H]3c3ccc4nc(C(F)(F)F)ccc4c3)c3nccn3n2)c(=O)[nH]1` (racemic) [Example 142, 5-(8-((1S,2S)-2-(2-(trifluoromethyl)quinolin-6-yl)cyclopropyl)imidazo[1,2-b]pyridazin-6-yl)pyrimidine-2,4(1H,3H)-dione and 5-(8-((1R,2R)-2-(2-(trifluoromethyl)quinolin-6-yl)cyclopropyl)imidazo[1,2-b]pyridazin-6-yl)pyrimidine-2,4(1H,3H)-dione]: 0.96 nM and 3.76 nM. For `O=c1[nH]cc(-c2cc([C@H]3C[C@@H]3c3ccc(C(F)(F)F)cn3)c3nccn3n2)c(=O)[nH]1` (racemic) [Example 149, 5-(8-((1S,2S)-2-(5-(trifluoromethyl)pyridin-2-yl)cyclopropyl)imidazo[1,2-b]pyridazin-6-yl)pyrimidine-2,4(1H,3H)-dione and 5-(8-((1R,2R)-2-(5-(trifluoromethyl)pyridin-2-yl)cyclopropyl)imidazo[1,2-b]pyridazin-6-yl)pyrimidine-2,4(1H,3H)-dione], in experiment [1], the midpoint of inhibition, the IC50, lay at 3.34 nM. The EC50 in experiment [2] is 7.61 nM. The matching figures for `O=c1[nH]cc(-c2cc([C@H]3C[C@@H]3c3ccc(C(F)(F)F)nc3)c3nccn3n2)c(=O)[nH]1` (racemic) [Example 152, 5-(8-((1S,2S)-2-(6-(trifluoromethyl)pyridin-3-yl)cyclopropyl)imidazo[1,2-b]pyridazin-6-yl)pyrimidine-2,4(1H,3H)-dione and 5-(8-((1R,2R)-2-(6-(trifluoromethyl)pyridin-3-yl)cyclopropyl)imidazo[1,2-b]pyridazin-6-yl)pyrimidine-2,4(1H,3H)-dione]: 3.45 nM and 17.5 nM.

In experiment [1], `O=C(c1cn2nc(-c3c[nH]c(=O)[nH]c3=O)cc([C@H]3C[C@@H]3c3ccc(F)cc3)c2n1)N1CC(F)(F)C1` (racemic) [Example 198, 5-[2-(3,3-difluoroazetidine-1-carbonyl)-8-[(1S,2S)-2-(4-fluorophenyl)cyclopropyl]imidazo[1,2-b]pyridazin-6-yl]-1H-pyrimidine-2,4-dione] gave an IC50 of 85.2 nM. The EC50 in experiment [2] was 191 nM. The matching figures for `O=C(c1cn2nc(-c3c[nH]c(=O)[nH]c3=O)cc([C@H]3C[C@@H]3c3ccc(F)cc3)c2n1)N1CCC(F)(F)C1` (racemic) [Example 199, 5-[2-(3,3-difluoropyrrolidine-1-carbonyl)-8-[(1S,2S)-2-(4-fluorophenyl)cyclopropyl]imidazo[1,2-b]pyridazin-6-yl]-1H-pyrimidine-2,4-dione]: over 250 nM and 755 nM. The matching figures for `O=c1[nH]cc(-c2cc([C@H]3C[C@@H]3c3ccc4onc(C(F)(F)F)c4c3)c3nccn3n2)c(=O)[nH]1` (racemic) [Example 327, 5-(8-((1S,2S)-2-(3-(trifluoromethyl)benzo[d]isoxazol-5-yl)cyclopropyl)imidazo[1,2-b]pyridazin-6-yl)pyrimidine-2,4(1H,3H)-dione]: 1.79 nM and 50 nM. Molecule `O=c1[nH]cc(-c2cc(N3CCC4(C3)CC4(F)F)c3nccn3n2)c(=O)[nH]1` (stereo not shown) [Example 192] showed an EC50 in experiment [2] of 20.9 nM. Regarding `O=c1[nH]cc(-c2cc(N3CC4CC(F)(C4)C3)c3nccn3n2)c(=O)[nH]1` [Example 579, 5-(8-(1-fluoro-3-azabicyclo[3.1.1]heptan-3-yl)imidazo[1,2-b]pyridazin-6-yl)pyrimidine-2,4(1H,3H)-dione], the EC50 in experiment [2] amounted to 111 nM. For `O=c1[nH]cc(-c2cc([C@H]3C[C@@H]3c3cc4c(cnn4CC(F)(F)F)cc3F)c3ncc(F)n3n2)c(=O)[nH]1` [Example 613, 5-(3-fluoro-8-((1S,2S)-2-(5-fluoro-1-(2,2,2-trifluoroethyl)-1H-indazol-6-yl)cyclopropyl)imidazo[1,2-b]pyridazin-6-yl)pyrimidine-2,4(1H,3H)-dione], in experiment [1], inhibition was half-maximal at 0.58 nM (IC50). The molecule `O=c1[nH]cc(-c2cc([C@H]3C[C@@H]3c3ccc4cnn(CC(F)(F)F)c4c3F)c3ncc(F)n3n2)c(=O)[nH]1` [Example 630, 5-(3-fluoro-8-((1S,2S)-2-(7-fluoro-1-(2,2,2-trifluoroethyl)-1H-indazol-6-yl)cyclopropyl)imidazo[1,2-b]pyridazin-6-yl)pyrimidine-2,4(1H,3H)-dione] yielded an EC50 in experiment [2] of 0.08 nM.

`CC(C)(C)COc1cc(-c2c[nH]c(=O)[nH]c2=O)nn2ccnc12` [Example 679, 5-(8-(neopentyloxy)imidazo[1,2-b]pyridazin-6-yl)pyrimidine-2,4(1H,3H)-dione]: the response in experiment [2] was half-maximal at 124 nM (EC50). `CC(C)NC(=O)O[C@H]1CN(c2cc(-c3c[nH]c(=O)[nH]c3=O)nc3ccnn23)CC1(F)F` [Example 713, (S)-1-(5-(2,4-dioxo-1,2,3,4-tetrahydropyrimidin-5-yl)pyrazolo[1,5-a]pyrimidin-7-yl)-4,4-difluoropyrrolidin-3-yl isopropylcarbamate] came in with an EC50 in experiment [2] of 0.39 nM.

Molecule `O=C1N(CC(F)(F)F)c2cc([C@H]3C[C@@H]3c3cc(-c4c[nH]c(=O)[nH]c4=O)nn4c(Cl)cnc34)ccc2C12CC2` [Example 740, 5-(3-chloro-8-((1S,2S)-2-(2′-oxo-1′-(2,2,2-trifluoroethyl)spiro[cyclopropane-1,3′-indolin]-6′-yl)cyclopropyl)imidazo[1,2-b]pyridazin-6-yl)pyrimidine-2,4(1H,3H)-dione] gave an IC50 in experiment [1] of 0.61 nM. Same read-out and setting: for `O=C1N(CC(F)(F)F)c2cc([C@H]3C[C@@H]3c3cc(-c4c[nH]c(=O)[nH]c4=O)nn4c(Cl)c(Cl)nc34)ccc2C12CC2` [Example 741, 5-(2,3-dichloro-8-((1S,2S)-2-(2′-oxo-1′-(2,2,2-trifluoroethyl)spiro[cyclopropane-1,3′-indolin]-6′-yl)cyclopropyl)imidazo[1,2-b]pyridazin-6-yl)pyrimidine-2,4(1H,3H)-dione] the value was 0.49 nM.
